Test results taken from patent publication US4148787A, “Antidiuretically effective polypeptide and a process for preparing the same” (Ferring AB, priority 1976, dated 1979).

Key:
[1] = Relative uterotonic activity in relation to DDAVP; conditions: relative activity figure, DDAVP arbitrarily set at 1.00
Description: (§1) Thus, the strenghts in Table I are expressed as relative activity figures, data for DDAVP as a comparative compound being arbitrarily set at 1.00.

[2] = Relative blood pressure (raising) activity in relation to DDAVP; assay type: in vivo
Description: as §1

[3] = Relative antidiuretic activity in relation to DDAVP; assay type: in vivo; conditions: relative activity figure, DDAVP arbitrarily set at 1.00
Description: as §1

NC(=O)CC[C@@H]1NC(=O)[C@H](Cc2ccccc2)NC(=O)[C@H](Cc2ccc(O)cc2)NC(=O)[C@@H](N)CSSC[C@@H](C(=O)N2CCC[C@H]2C(=O)N[C@@H](CCCN=C(N)N)C(=O)NCC(N)=O)NC(=O)[C@H](CC(N)=O)NC1=O [Arg-vasopressin, arginine-vasopressin]
Uterotonic (relative activity) [1]: 1.0 | Blood pressure (relative activity) ([2]; in vivo): 1450 | Antidiuresis (relative activity) [3]: 0.10

NC(=O)CC[C@@H]1NC(=O)[C@H](Cc2ccccc2)NC(=O)[C@H](Cc2ccc(O)cc2)NC(=O)CCSSC[C@@H](C(=O)N2CCC[C@H]2C(=O)N[C@H](CCCN=C(N)N)C(=O)NCC(N)=O)NC(=O)[C@H](CC(N)=O)NC1=O [DDAVP, desamino-D-arginine^8 -vasopressin]
Uterotonic (relative activity) [1]: 1.00 | Blood pressure (relative activity) ([2]; relative activity figure, DDAVP arbitrarily set at 1.00): 1.00 | Antidiuresis (relative activity) [3]: 1.00
